18 compounds from ChEMBL document CHEMBL5241058, “Pyrazole-based analogs as potential antibacterial agents against methicillin-resistance staphylococcus aureus (MRSA) and its SAR elucidation” (Eur J Med Chem, 2021) can be followed below.

In brackets after ≈: the same amount, converted by molar mass.

In test [1] the test system is Staphylococcus aureus. The test can be described thus: Antimicrobial activity against Methicillin-resistant Staphylococcus aureus ATCC 3167 assessed as bacterial growth inhibition. The test is classed as functional.
The test system of test [2] is Staphylococcus aureus. In words: Antimicrobial activity against Methicillin-resistant Staphylococcus aureus ATCC 33591 assessed as bacterial growth inhibition incubated for 20 to 24 hrs by microdilution method. Type of test: functional. The conditions noted are these: time 20-24 hrs.
Test [3] has as its system Staphylococcus aureus. The test can be described thus: Antimicrobial activity against Methicillin-resistant Staphylococcus aureus CCARM 3506 assessed as bacterial growth inhibition incubated for 24 hrs by ELISA assay. The test is classed as functional. In general terms: ELISA stands for enzyme-linked immunosorbent assay.
Test [4] concerns the target T1, Dihydrofolate reductase (Homo sapiens) (UniProt P00374).
T1 sequence (whole entry): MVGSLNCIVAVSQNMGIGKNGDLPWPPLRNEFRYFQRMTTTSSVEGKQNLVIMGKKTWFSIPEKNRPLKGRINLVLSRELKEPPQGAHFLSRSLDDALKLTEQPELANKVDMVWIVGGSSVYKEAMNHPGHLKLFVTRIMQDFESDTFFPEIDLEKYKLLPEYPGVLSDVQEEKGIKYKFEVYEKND
In words: Inhibition of human DHFR using TMB as substrate incubated for 1.5 hrs by ELISA assay relative to control. The note with it: concentration not given here.

Test [5] deals with Staphylococcus aureus. The test can be described thus: Antimicrobial activity against Methicillin-resistant Staphylococcus aureus ATCC 33599 assessed as bacterial growth inhibition. Type of test: functional.
For test [6], the system named is Staphylococcus aureus. The test can be described thus: Antimicrobial activity against vancomycin intermediate-resistant Staphylococcus aureus assessed as bacterial growth inhibition incubated for 24 hrs by microdilution method. Type of test: functional.
In test [7] the test system is Staphylococcus aureus. In words: Antibiofilm activity against Methicillin-resistant Staphylococcus aureus USA 300 relative to control. Type of test: functional.
In test [8] the test system is Staphylococcus aureus. The test can be described thus: Antimicrobial activity against Methicillin-resistant Staphylococcus aureus BFSA25 assessed as bacterial growth inhibition by microdilution method. The test is classed as functional. The conditions noted are these: BFA25. Background: Dilution methods test growth across graded concentrations, often in twofold steps.

The test system of test [9] is Staphylococcus aureus. In words: Antimicrobial activity against Methicillin-resistant Staphylococcus aureus BFSA30 assessed as bacterial growth inhibition by microdilution method. The note with it: BFA30. Type of test: functional.
Test [10] relates to Staphylococcus aureus. In words: Antimicrobial activity against Methicillin-resistant Staphylococcus aureus BFSA31 assessed as bacterial growth inhibition by microdilution method. The test is classed as functional. The conditions noted are these: BFA31.
Test [11] deals with Staphylococcus aureus. In words: Antimicrobial activity against Methicillin-resistant Staphylococcus aureus BFSA32 assessed as bacterial growth inhibition by microdilution method. The note with it: BFA32. Type of test: functional.
Test [12] relates to Staphylococcus aureus. The test can be described thus: Antimicrobial activity against Methicillin-resistant Staphylococcus aureus BFSA33 assessed as bacterial growth inhibition by microdilution method. The conditions noted are these: BFA33. The test is classed as functional.
Test [13] relates to Staphylococcus aureus. In words: Antimicrobial activity against Methicillin-resistant Staphylococcus aureus BFSA48 assessed as bacterial growth inhibition by microdilution method. Type of test: functional. The note with it: BFA48.
The subject of test [14] is Staphylococcus aureus. In words: Antimicrobial activity against Staphylococcus aureus MTCC 96 assessed as bacterial growth inhibition incubated for 24 to 48 hrs. The conditions noted are these: time 24-48 hrs. The test is classed as functional.
The subject of test [15] is Staphylococcus aureus. The test can be described thus: Antimicrobial activity against Staphylococcus aureus MTCC 442 assessed as bacterial growth inhibition incubated for 24 to 48 hrs. The test is classed as functional. The note with it: time 24-48 hrs.
The test system of test [16] is Staphylococcus aureus. The test can be described thus: Antimicrobial activity against Methicillin-resistant Staphylococcus aureus ATCC 43300 assessed as bacterial growth inhibition by microdilution method. The test is classed as functional.
The subject of test [17] is Staphylococcus aureus. The test can be described thus: Antimicrobial activity against Methicillin-resistant Staphylococcus aureus assessed as bacterial growth inhibition incubated for 24 hrs. Type of test: functional.
Test [18] concerns Staphylococcus aureus. In words: Antimicrobial activity against Staphylococcus aureus 209 assessed as bacterial growth inhibition. The test is classed as functional.
Test [19] relates to Staphylococcus aureus. In words: Antimicrobial activity against Methicillin-sensitive Staphylococcus aureus ATCC 33591 assessed as bacterial growth inhibition by microbroth serial dilution method. The test is classed as functional.
Test [20] deals with Staphylococcus aureus. In words: Antimicrobial activity against Methicillin-sensitive Staphylococcus aureus ATCC 43300 assessed as bacterial growth inhibition by microbroth serial dilution method. The test is classed as functional.
The subject of test [21] is Staphylococcus aureus. In words: Antimicrobial activity against Methicillin-sensitive Staphylococcus aureus ATCC 33591 assessed as bacterial growth inhibition incubated for 24 hrs. The test is classed as functional.
Test [22] deals with Staphylococcus aureus. The test can be described thus: Antimicrobial activity against Methicillin-sensitive Staphylococcus aureus ATCC 43300 assessed as bacterial growth inhibition incubated for 24 hrs. Type of test: functional. The conditions noted are these: ATCC43300.
Test [23] concerns Staphylococcus aureus. In words: Antimicrobial activity against Methicillin-resistant Staphylococcus aureus ATCC 43300 assessed as bacterial growth inhibition. Type of test: functional.
The subject of test [24] is Staphylococcus aureus. The test can be described thus: Antimicrobial activity against Methicillin-resistant Staphylococcus aureus ATCC 33592 assessed as bacterial growth inhibition incubated for 20 to 24 hrs by microdilution method. Type of test: functional. The note with it: time 20-24 hrs.

In general, MIC refers to the least concentration at which growth counts as inhibited. For the compound `COc1cc(/C=C/c2cc(/C=C/c3ccc(OCC(=O)N[C@H](C)c4ccccc4)c(OC)c3)[nH]n2)ccc1OCC(=O)N[C@H](C)c1ccccc1`, the MIC in the test on Staphylococcus aureus [1] stood at 10 µM (≈ 6.87 µg/mL).

Turning to `O=C(O)c1ccc(-n2cc(/C=N/Nc3ccc(Cl)cc3Cl)c(-c3cccc(F)c3)n2)cc1`, the MIC in the test on Staphylococcus aureus [2] came to 0.39 µg/mL (≈ 0.831 µM).

What is called inhibition is the percentage by which the read-out fell short of the control. For the compound `Cc1nn(-c2ccc(Cl)cc2Cl)c(Oc2ccc(Cl)cc2Cl)c1C1N=C(N)NC(NCCc2ccccc2)=N1` (stereo not given), in the test on Staphylococcus aureus [3], the MIC came out at 0.5 µg/mL (≈ 0.829 µM). Besides, the inhibition in [4] stood at 43%.

Broadly, the MBC is the lowest tested concentration that kills the bacteria rather than only halting them. As for `CN[C@H](CC(C)C)C(=O)N[C@H]1C(=O)N[C@@H](CC(N)=O)C(=O)N[C@H]2C(=O)N[C@H]3C(=O)N[C@H](C(=O)N[C@H](C(=O)O)c4cc(O)cc(O)c4-c4cc3ccc4O)[C@H](O)c3ccc(c(Cl)c3)Oc3cc2cc(c3O[C@@H]2O[C@H](CO)[C@@H](O)[C@H](O)[C@H]2O[C@H]2C[C@](C)(N)[C@H](O)[C@H](C)O2)Oc2ccc(cc2Cl)[C@H]1O` [VANCOMYCIN], in the test on Staphylococcus aureus [5], the MBC is 6.25 µg/mL (≈ 4.31 µM) and the minimal inhibitory concentration (MIC) came out at 3.12 µg/mL (≈ 2.16 µM). For the same compound, the minimum inhibitory concentration (MIC) in the test with Staphylococcus aureus [6] was less than 0.125 µg/mL. The Activity with Staphylococcus aureus [7] was found to be 18%.

`CCCSC(=S)c1c(C)nn(-c2ccccc2)c1O`: the MIC in the test with Staphylococcus aureus [8], in the test with Staphylococcus aureus [9], with Staphylococcus aureus [10], in the test with Staphylococcus aureus [11], with Staphylococcus aureus [12] and in the test on Staphylococcus aureus [13] was 4 µg/mL each time.

For the compound `O=C(N[C@H](CO)[C@H](O)c1ccc([N+](=O)[O-])cc1)C(Cl)Cl` [CHLORAMPHENICOL], the MIC in the test with Staphylococcus aureus [14] came out at 50 µg/mL (≈ 155 µM); in the test with Staphylococcus aureus [15], 50 µg/mL (≈ 155 µM); with Staphylococcus aureus [16] it was 50 µg/mL.

Regarding `Cc1nn(-c2ccccc2)c(Cl)c1/C=C(\Br)C(=O)C1C(=O)N(C)C(=O)N(C)C1=O`, the MIC in the test on Staphylococcus aureus [17] turned out to be 25 µg/mL (≈ 52.1 µM).

On to `COc1[nH]nc2nncnc12`, for which the MIC with Staphylococcus aureus [18] was found to be 200 µg/mL (≈ 1320 µM).

For the compound `CCCC#Cc1ccc(-n2ncc(/C(C)=N\NC(=N)N)c2C)cc1`, the Activity with Staphylococcus aureus [7] is 74%.

Take `O=C1S/C(=C\c2cn(-c3ccccc3)nc2-c2cccc([N+](=O)[O-])c2)C(=O)N1CCCn1ccc2ccccc21`: the minimum inhibitory concentration (MIC) in the test on Staphylococcus aureus [16] worked out at 50 µg/mL.

For the compound `O=C1S/C(=C\c2cn(-c3ccccc3)nc2-c2ccc([N+](=O)[O-])cc2)C(=O)N1CCCn1ccc2ccccc21`, the minimum inhibitory concentration (MIC) with Staphylococcus aureus [16] came to 12.5 µg/mL.

As to `CC(=O)NC[C@H]1CN(c2ccc(N3CCOCC3)c(F)c2)C(=O)O1` [LINEZOLID], the MIC in the test with Staphylococcus aureus [19] stood at 2.6 µM; with Staphylococcus aureus [19] (Staphylococcus aureus, ATCC 33591, read-out: MIC), 5.2 µM; in the test on Staphylococcus aureus [20], 2.6 µM. In addition, the figures for the MBC with Staphylococcus aureus [20], in the test on Staphylococcus aureus [21] and in the test with Staphylococcus aureus [22] were 46.2 µM, 46.2 µM (≈ 15.6 µg/mL) and 46.2 µM (≈ 15.6 µg/mL), respectively.

As for `CC(C)(C)c1cc(NC(=O)c2cccc(F)c2)n(-c2ccc(Cl)cc2)n1`, in the test on Staphylococcus aureus [23], the MIC is 3.12 µg/mL (≈ 8.39 µM).

Consider `COc1ccc(-n2nc(C(C)(C)C)cc2NC(=O)c2cccc(Cl)c2)cc1`, for which, in the test on Staphylococcus aureus [23], the MIC turned out to be 3.12 µg/mL (≈ 8.13 µM).

Turning to `COc1nnc2nn(C)cnc1-2`, the MIC in the test with Staphylococcus aureus [18] came to 50 µg/mL (≈ 303 µM).

As for `Cc1onc(-c2ccccc2)c1C(=O)N[C@@H]1C(=O)N2[C@@H]1SC(C)(C)[C@@H]2C(=O)O` [OXACILLIN], the MIC in the test on Staphylococcus aureus [8], in the test with Staphylococcus aureus [9], with Staphylococcus aureus [10], in the test with Staphylococcus aureus [11], with Staphylococcus aureus [12] and in the test on Staphylococcus aureus [13] was greater than 32 µg/mL each time. For the same compound, the MIC in the test on Staphylococcus aureus [1] amounted to 64 µM (≈ 25.7 µg/mL).

Regarding `Cc1nn(-c2ccccc2)c(Cl)c1/C=C/c1ccc([N+](=O)[O-])cc1[N+](=O)[O-]`, the MIC in the test with Staphylococcus aureus [17] came out at 25 µg/mL (≈ 65 µM).

On to `O=C(O)c1ccc(-n2cc(/C=N/Nc3cccc(Cl)c3F)c(-c3cccc(F)c3)n2)cc1`, for which the MIC with Staphylococcus aureus [24] worked out at 0.78 µg/mL (≈ 1.72 µM).
